Experiments:
rCor a 8 = biological target: T1, rCor a 8 (Corylus avellana, UniProt Q9ATH2); assay: ANS displacement fluorescence; format: binding; details: 50 μmol/L ligand, protein:ligand 1:5
T1 construct: recombinant, produced in Pichia pastoris, purified
T1 sequence (Q9ATH2 24-115): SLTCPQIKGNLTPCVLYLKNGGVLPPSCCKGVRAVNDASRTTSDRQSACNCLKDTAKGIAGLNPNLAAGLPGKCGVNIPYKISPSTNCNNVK

rMal d 3 = biological target: T2, rMal d 3 (Malus domestica, UniProt Q9M5X7); assay: ANS displacement fluorescence; format: binding; details: 50 μmol/L ligand, protein:ligand 1:5
T2 construct: gene MALD3; recombinant, produced in Pichia pastoris, purified
T2 sequence (Q9M5X7 25-115): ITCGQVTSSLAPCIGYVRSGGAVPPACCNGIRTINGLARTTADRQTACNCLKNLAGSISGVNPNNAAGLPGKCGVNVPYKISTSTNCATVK

## CCCCCCCC/C=C\CCCCCCCC(=O)O [OLE, oleic acid]
rCor a 8
  % reduction of ANS fluorescence at 50 μmol/L: 23%
rMal d 3
  % reduction of ANS fluorescence at 50 μmol/L: 59%

## CCCCCCCCCCCCCCCCCC(=O)O [STE, stearic acid]
rMal d 3
  % reduction of ANS fluorescence at 50 μmol/L: 17%
